Test results from patent US10597388B2, “Pyridazinone herbicides” (FMC CORPORATION, priority 2014, dated 2020).

Columns and labels:
Format in all cases: in vivo
[1] = test system: barnyardgrass (Echinochloa crus-galli); assay: Test A greenhouse herbicide test, pre- and postemergence
Procedure, shortened: (§1)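 Seeds sown in loam–sand blend got a preemergence directed soil spray of compound in non-phytotoxic solvent with surfactant. Postemergence treatment was given at 2–10 cm, one- to two-leaf stage. After ~10 d in greenhouse, injury was rated visually vs untreated controls, 0 (no effect) to 100 (complete control).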

corn (Zea mays) = assay: as above; settings: Postemergence; for Plant response rating, Corn: 125 g ai/ha, 0 to 100 scale where 0 is no effect and 100 is complete control; for Corn plant response rating: 500 g ai/ha, 0 to 100 scale, 0 is no effect, 100 is complete control
Procedure, shortened: as §1

[2] = test system: foxtail, giant (giant foxtail, Setaria faberii); assay: as above
Procedure, shortened: as §1

kochia (Kochia scoparia) = assay: as above
Procedure, shortened: as §1

[3] = test system: pigweed (Amaranthus retroflexus); assay: as above
Procedure, shortened: as §1

[4] = test system: ragweed (common ragweed, Ambrosia elatior); assay: as above
Procedure, shortened: as §1

[5] = test system: ryegrass, Italian (Italian ryegrass, Lolium multiflorum); assay: as above
Procedure, shortened: as §1

[6] = test system: wheat (Triticum aestivum); assay: as above; settings: Postemergence; for Plant response rating, Wheat: 125 g ai/ha, 0 to 100 scale where 0 is no effect and 100 is complete control; for Wheat plant response rating: 500 g ai/ha, 0 to 100 scale, 0 is no effect, 100 is complete control
Procedure, shortened: as §1

[7] = test system: johnsongrass (Sorghum halepense); assay: Test C greenhouse herbicide test, pre- and postemergence
Excerpt: (§2) Seeds of plant species selected from blackgrass (Alopecurus myosuroides), ryegrass, Italian (Italian ryegrass, Lolium multiflorum), wheat (winter wheat, Triticum aestivum), galium (catchweed bedstraw, Galium aparine), corn (Zea mays), large crabgrass, large (large crabgrass, Digitaria sanguinalis), foxtail, giant (giant foxtail, Setaria faberii), johnsongrass (Sorghum halepense), lambsquarters (Chenopodium album), morningglory (Ipomoea coccinea), nutsedge, yellow (yellow nutsedge, Cyperus esculentus), pigweed (Amaranthus retroflexus), ragweed (common ragweed, Ambrosia elatior), soybean (Glycine max), barnyardgrass (Echinochloa crus-galli), oilseed rape (Brassica napus), waterhemp (common waterhemp, Amaranthus rudis), and velvetleaf (Abutilon theophrasti) were planted into a blend of loam soil and sand and treated preemergence with test chemicals formulated in a non-phytotoxic solvent mixture which included a surfactant.
(§3) At the same time, plants selected from these crop and weed species and also chickweed (common chickweed, Stellaria media), kochia (Kochia scoparia), and oat, wild (wild oat, Avena fatua), were planted in pots containing Redi-Earth® planting medium (Scotts Company, 14111 Scottslawn Road, Marysville, Ohio 43041) comprising spaghnum peat moss, vermiculite, wetting agent and starter nutrients and treated with postemergence applications of test chemicals formulated in the same manner. Plants ranged in height from 2 to 18 cm (1- to 4-leaf stage) for postemergence treatments. Treated plants and controls were maintained in a greenhouse for 13 to 15 d, after which time all species were compared to controls and visually evaluated. Plant response ratings, summarized in Table C, are based on a scale of 0 to 100 where 0 is no effect and 100 is complete control. A dash (-) response means no test result.

[8] = test system: waterhemp (common waterhemp, Amaranthus rudis); assay: as above
Excerpt: as §2, §3

[9] = Postemergence, 125 g ai/ha, 0 to 100 scale where 0 is no effect and 100 is complete control
[10] = Postemergence, 500 g ai/ha, 0 to 100 scale, 0 is no effect, 100 is complete control
[11] = Preemergence, 125 g ai/ha, 0 to 100 scale where 0 is no effect and 100 is complete control
[12] = Preemergence, 500 g ai/ha, 0 to 100 scale, 0 no effect, 100 complete control
[13] = Postemergence, 31 g ai/ha, 0 to 100 scale (0 no effect, 100 complete control)
[14] = Postemergence, 125 g ai/ha, scale 0 to 100, 0 is no effect, 100 is complete control
[15] = Postemergence, 250 g ai/ha, scale 0 to 100, 0 no effect, 100 complete control, 13 to 15 d
[16] = Preemergence, 31 g ai/ha, scale 0 to 100, 0 is no effect, 100 is complete control
[17] = Preemergence, 62 g ai/ha, scale 0 to 100, 0 is no effect, 100 is complete control
[18] = Preemergence, 125 g ai/ha, scale 0 to 100, 0 is no effect, 100 is complete control
[19] = Preemergence, 250 g ai/ha, scale 0 to 100, 0 no effect, 100 complete control
[20] = postemergence, 62 g ai/ha, scale 0 to 100, 0 no effect, 100 complete control
[21] = Preemergence, 500 g ai/ha, 0 to 100 scale where 0 is no effect and 100 is complete control

Cc1ccc2sc(C)c(-c3c(OC(=O)OC(C)C)c(C)nn(C)c3=O)c2c1 [Compound 66]
Plant response rating, Barnyardgrass [1, 9]: 20
Barnyardgrass plant response rating [1, 10]: 90
Barnyardgrass plant response rating [1, 11]: 20
Plant response rating, Barnyardgrass [1, 12]: 70
Plant response rating, Corn (corn (Zea mays)): 0
Corn plant response rating (corn (Zea mays)): 0
Plant response rating, Foxtail, Giant [2, 9]: 70
Foxtail, Giant plant response rating [2, 10]: 90
Foxtail, Giant plant response rating [2, 11]: 60
Plant response rating, Foxtail, Giant [2, 12]: 90
Plant response rating, Kochia (kochia (Kochia scoparia); [9]): 90
Kochia plant response rating (kochia (Kochia scoparia); [10]): 90
Kochia plant response rating (kochia (Kochia scoparia); [11]): 60
Plant response rating, Kochia (kochia (Kochia scoparia); [12]): 70
Plant response rating, Pigweed [3, 9]: 80
Pigweed plant response rating [3, 10]: 90
Pigweed plant response rating [3, 11]: 100
Plant response rating, Pigweed [3, 12]: 100
Plant response rating, Ragweed [4, 9]: 70
Ragweed plant response rating [4, 10]: 90
Ragweed plant response rating [4, 11]: 80
Plant response rating, Ragweed [4, 12]: 90
Plant response rating, Ryegrass, Italian [5, 9]: 90
Ryegrass, Italian plant response rating [5, 10]: 100
Ryegrass, Italian plant response rating [5, 11]: 90
Plant response rating, Ryegrass, Italian [5, 12]: 100
Plant response rating, Wheat [6]: 0
Wheat plant response rating [6]: 0
Johnsongrass plant response rating [7, 13]: 5
Plant response rating, Johnsongrass [7, 14]: 5
Plant response rating, Johnsongrass [7, 15]: 15
Plant response rating, Johnsongrass [7, 16]: 10
Plant response rating, Johnsongrass [7, 17]: 25
Plant response rating, Johnsongrass [7, 18]: 55
Johnsongrass plant response rating [7, 19]: 65
Johnsongrass plant response rating [7, 20]: 5
Waterhemp plant response rating [8, 13]: 98
Plant response rating, Waterhemp [8, 14]: 90
Plant response rating, Waterhemp [8, 15]: 100
Plant response rating, Waterhemp [8, 16]: 85
Plant response rating, Waterhemp [8, 17]: 90
Plant response rating, Waterhemp [8, 18]: 100
Waterhemp plant response rating [8, 19]: 100
Waterhemp plant response rating [8, 20]: 90

Cc1ccc2ccccc2c1-c1c(OC(=O)OC(C)C)c(C)nn(C)c1=O [Compound 72]
Plant response rating, Barnyardgrass [1, 9]: 20
Barnyardgrass plant response rating [1, 10]: 60
Barnyardgrass plant response rating [1, 11]: 10
Plant response rating, Barnyardgrass [1, 12]: 100
Plant response rating, Corn (corn (Zea mays)): 20
Corn plant response rating (corn (Zea mays)): 40
Plant response rating, Foxtail, Giant [2, 9]: 30
Foxtail, Giant plant response rating [2, 10]: 90
Foxtail, Giant plant response rating [2, 11]: 70
Plant response rating, Foxtail, Giant [2, 21]: 100
Plant response rating, Kochia (kochia (Kochia scoparia); [9]): 60
Kochia plant response rating (kochia (Kochia scoparia); [10]): 90
Kochia plant response rating (kochia (Kochia scoparia); [11]): 50
Plant response rating, Kochia (kochia (Kochia scoparia); [21]): 100
Plant response rating, Pigweed [3, 9]: 90
Pigweed plant response rating [3, 10]: 90
Pigweed plant response rating [3, 11]: 100
Plant response rating, Pigweed [3, 21]: 100
Plant response rating, Ragweed [4, 9]: 70
Ragweed plant response rating [4, 10]: 90
Ragweed plant response rating [4, 11]: 90
Plant response rating, Ragweed [4, 21]: 90
Plant response rating, Ryegrass, Italian [5, 9]: 100
Ryegrass, Italian plant response rating [5, 10]: 100
Ryegrass, Italian plant response rating [5, 11]: 100
Plant response rating, Ryegrass, Italian [5, 21]: 100
Plant response rating, Wheat [6]: 20
Wheat plant response rating [6]: 70
Johnsongrass plant response rating [7, 13]: 5
Plant response rating, Johnsongrass [7, 14]: 5
Plant response rating, Johnsongrass [7, 15]: 45
Plant response rating, Johnsongrass [7, 16]: 0
Plant response rating, Johnsongrass [7, 17]: 25
Plant response rating, Johnsongrass [7, 18]: 80
Johnsongrass plant response rating [7, 19]: 85
Johnsongrass plant response rating [7, 20]: 5
Waterhemp plant response rating [8, 13]: 70
Plant response rating, Waterhemp [8, 14]: 85
Plant response rating, Waterhemp [8, 15]: 85
Plant response rating, Waterhemp [8, 16]: 75
Plant response rating, Waterhemp [8, 17]: 90
Plant response rating, Waterhemp [8, 18]: 90
Waterhemp plant response rating [8, 19]: 90
Waterhemp plant response rating [8, 20]: 65
